Experiments:
[1] = tested on: Human aortic endothelial cells (HAEC); experiment: In vitro endothelial cell migration assay (transwell microchemotaxis chamber); assay type: cell-based
Method: Endothelial cells were known to respond to angiogenic factors which cause motility and mitosis, and ultimately the release of growth factors from the cells. Human aortic endothelial cells (HAEC) were cultured at passage 8 and maintained and fed with MCDB 131 media with EGM-2 (Clonetics) until the day of the experiment. Cultures were maintained at 37° C., 5% CO2 and 100% humidity. Comparisons were made of PEG-di-DT Hydrazide activity versus basic FGF-β. The PEG-di-DT hydrazide and basic FGF-β were dissolved in MCDB 131 media. Basic FGF-β was used as a positive control due to its well documented angiogenic activity and extensive testing. Dose-response curves were obtained for PEG-di-DT Hydrazide and basic FGF-β. PEG-dihydrazide, DT monomer, and PEG (Mw=2000), were prepared in MCDB 131 media according to Table 2, and were also tested. Migration assays were performed in a 24-well microchemotaxis chamber (Co-Star) containing transwells of untreated polycarbonate membranes with 8 μm pores. Both the transwells and well bottoms were coated overnight with a 10 μg/mL fibronectin solution (Calbiochem). HAE cells were harvested and resuspended at a concentration of 4.5×10^5 cells/0.1 mL in the corresponding medium. Media was also tested to determine baseline chemotaxis. The bottom wells were filled with 500 μL of test solution, and the transwells were seeded with […] and incubated for 6 hours at 37° C. The cells that migrated through the membrane were quantitated by counting the whole area of the filter using a grid and a (Olympus) microscope at 40× or 20× magnification.

[2] = Scaffold degradation study in SBF at 37° C. (HPLC, TGA, gravimetry)
Method: To determine degradation products of porous scaffolds (compositions used: 100/80, 50/40 and 25/20), hydrogel disks of various compositions samples were incubated at 37° C. in SBF at a constant weight to volume ratio of 5 mg/mL, maintaining a constant surface area to volume ratio. Over a one-week period, aliquots were removed and analyzed by HPLC. Buffer solutions were changed every two weeks to maintain sink conditions. Samples were analyzed over a 6-month period for degradation products in the buffer by HPLC, for water uptake by TGA, and mass loss by gravimetry. Aliquots of the degradation media were analyzed by HPLC. The HPLC system consisted of a reversed-phase (C18) column (Perkin-Elmer, Norwalk, Calif.), an LC pump (Model 410; Perkin-Elmer), a UV array detector at 220 nm (Model 235 Perkin-Elmer), an autoinjector (Model ISS-100; Perkin-Elmer), and a computerized data station (Turbochrom; Perking Elmer). A gradient system of water:acetonitrile was used as an eluent to capture each degradation product. Degradation was monitored using DT and DTE standards, and quantitation of degradation products was determined from the area under the signal peaks in the chromatogram after correlating to the standards. […] Mass loss was calculated as the % ratio of weight lost over initial weight. […]

[3] = tested on: Rat lung fibroblasts (RLF-6); experiment: Cytotoxicity, CellTiter96 Aqueous One Solution Cell Proliferation Assay; details: RFL-6 cells; serial dilutions 200 to 7.8 mg/mL in SBF; read at 490 nm
Method: In vitro biocompatibility studies of PEG-di-DT hydrazide were assessed by analyzing cytotoxicity. […] The CellTiter96® Aqueous One Solution Cell Proliferation Assay (Promega, Madison, Wis.) was used to determine cytotoxicity. Plates were read on a PowerWavex absorbance plate reader, (Bio-Tek Instrumentation, Inc., Highland Park, Vt.).
Cell toxicity studies were carried out in 96-well plates made of tissue-cultured polystyrene, and ˜3×10^3 cells were seeded in each well. Serial dilutions of PEG-di-DT hydrazide were prepared in concentrations ranging from 200 mg/mL to 7.8 mg/mL using SBF as the diluent. Volume of media was kept constant to prevent nutritional advantages. Filter-sterilized dilutions (n=6) were plated in a 96 well plate and controls of media+cells+diluent (to account for affects of the diluent), and media+cells (optimal cell culture conditions) were employed. […] The plates were incubated for 2 hours and read at 490 nm on an absorbance plate reader. Data were analyzed using a two-tailed Student t-test, establishing statistical significance at p<0.05 when compared to cells grown in the cell+media+diluent control.

O=C(CCc1ccc(O)cc1)N[C@@H](Cc1ccc(O)cc1)C(=O)O [DT, desaminotyrosyl-tyrosine free carboxylic acid]
cell migration ([1]; HAEC, 6 hours at 37° C.): Neither PEG 2000 nor DT solutions caused cell migration to occur | presence of degradation product during degradation ([2]; HPLC, 6-month study): continued to remain during the course of degradation

CCOC(=O)[C@H](Cc1ccc(O)cc1)NC(=O)CCc1ccc(O)cc1 [DTE, desaminotyrosyl-tyrosine ethyl ester]
time by which degradation product was undetectable by HPLC ([2]; degradation media of hydrogels, SBF, 37° C.): ≤ 12 weeks

CC(O)C(=O)[O-].[Na+] (stereo not shown) [Sodium Lactate, sodium lactate]
Results of the Cytotoxicity Assay [3]: 3 mg/mL

FGF-β: growth factor, known angiogenic substance used as positive control
dose dependence of cell migration ([1]; FIG. 7 / FIG. 8): dose dependent manner | minimum effective concentration (cell migration) ([1]; HAEC, 6 hours, FIG. 6): 0.01 µg/mL | cell migration response versus media alone ([1]; all concentrations tested): higher cell migration response than the media alone
